# Measurements reported in patent US20100189648A1, “INHIBITORS FOR DISRUPTING THE INTERACTION OF UBIQUITINATION RELATED ENZYMES AND USES THEREOF” (priority 2006, published 2010).
# Tests used:
# Type in all cases: cell-based, human
# Hela cells = experiment: MTT survival assay, cervical cancer line (Hela cells); parameters: IC50 (95% confidence level), interval: unit not given beside the values
# Experimental: (§1) The effect of the above identified compounds on anti-tumor activity in human carcinoma cells was determined by the MTT survival assay. The MTT assay is a commonly used method in evaluation of cell survival, based on the ability of viable cells to convert MTT (MTT, Sigma, Cat No. 044K5307), a soluble tetrazolium salt [3-(4,5-dimethylthuazole-2-yl)-2,5 diphenyl tetrazolium bromide], into an insoluble formazan precipitate, which is quantitated by spectrophotometry following solubilization in dimethyl sulfoxide (DMSO).
# (§2) In brief, different carcinoma cells were treated with negative control, various test articles at different concentration, and positive control (DDP), in 96-well tissue culture dishes. Each test article at different concentration is repeated 3 times.
# (§3) Different carcinoma cells were diluted with 10% FBS and RPM1640 or MEM media to a concentration of 3-5×10^4 per ml suspension. 100 microliter of cells were incubated in each well in 96-well tissue culture dishes at 37 C. The cells were incubated at 37 C on the first day. On the second day, media supernatant was removed and replaced with media and different concentration of test articles (100 microliter in each well). Three Negative control wells and three positive control (DDP) wells were also included. The 96-well plate were incubated at 37 C for another 68 hours. After 68 hours, supernatant of each well was removed. 100 microliter of 1 mg/ml MTT diluted in PBS was injected into each well. The cells were incubated at 37 C for another 4 hours. The cells were then solubilized in 150 microliter DMSO, mixed for 10 minutes and absorbance readings were taken using Microplate reader Bio-Rad Model 550 at 570 nm. IR (cell growth inhibition rate) % was calculated as (OD570 of negative control-OD570 with test article)/OD570 of negative control. IC50 (cell 50% inhibition concentration) at 95% confidence level was calculated with Bliss method.
# MCF-7 = experiment: MTT survival assay, breast cancer cell line (MCF-7); parameters: IC50 (95% confidence level), interval: unit not given beside the values
# Experimental: as §1, §2, §3
# U251 = experiment: MTT survival assay, glioma cell line (brain tumor U251); conditions: for IC50 (95% confidence level): Bliss method, unit not printed (concentrations in μg/ml)
# Experimental: as §1, §2, §3
# A459 = experiment: MTT survival assay, lung cancer cell line (A459); parameters: IC50 (95% confidence level), interval: unit not given beside the values; conditions: for IC50 (95% confidence level), interval: 95% confidence limits of IC50; for IC50 (95% confidence level): Bliss method, unit not printed (concentrations in μg/ml)
# Experimental: as §1, §2, §3
# SKOV3 = experiment: MTT survival assay, ovarian cancer cell line (SKOV3); conditions: for IC50 (95% confidence level): Bliss method, unit not printed (concentrations in μg/ml)
# Experimental: as §1, §2, §3
# HCT116 = experiment: MTT survival assay, colon cancer cell line (HCT116); parameters: IC50 (95% confidence level), interval: unit not given beside the values
# Experimental: as §1, §2, §3
# SMMC-7721 = experiment: MTT survival assay, liver cancer cell line (SMMC-7721)
# Experimental: as §1, §2, §3
# [1] = Bliss method, unit not printed (concentrations in μg/ml)
# [2] = U251 (first table), 0.0625 μg/ml
# [3] = U251 (second table), 0.0625 μg/ml
# [4] = U251 (second table), 0.25 μg/ml
# [5] = A459 Experiment #2, 0.0625 μg/ml
# [6] = SKOV3 (first table), 0.0625 μg/ml
# [7] = SKOV3 (first table), 0.25 μg/ml
# [8] = SKOV3 (second table), 0.0625 μg/ml
# [9] = SKOV3 (second table), 0.25 μg/ml
# [10] = SMMC-7721 Experiment #2, 0.25 μg/ml
# [11] = SMMC-7721 Experiment #2, 1 μg/ml
# [12] = SMMC-7721 Experiment #2, 4 μg/ml
smiles,measurement,setting,value
"N.N.[Cl][Pt][Cl] [DDP, cisplatin, reference compound]",IR (%),Hela cells; 0.0625 μg/ml,35.3%
same,OD(A570 nm),Hela cells; 0.0625 μg/ml,0.481 ± 0.081
same,IR (%),Hela cells; 0.25 μg/ml,72.2%
same,OD(A570 nm),Hela cells; 0.25 μg/ml,0.206 ± 0.014
same,IR (%),Hela cells; 1 μg/ml,83.4%
same,OD(A570 nm),Hela cells; 1 μg/ml,0.123 ± 0.007
same,IR (%),Hela cells; 4 μg/ml,89.5%
same,OD(A570 nm),Hela cells; 4 μg/ml,0.078 ± 0.001
same,"IC50 (95% confidence level), interval",Hela cells; 95% confidence limits of IC50,0.062-0.156
same,IC50 (95% confidence level),Hela cells; [1],0.105
same,IR (%),MCF-7; 0.0625 μg/ml,12.8%
same,OD(A570 nm),MCF-7; 0.0625 μg/ml,0.787 ± 0.005
same,IR (%),MCF-7; 0.25 μg/ml,2.6%
same,OD(A570 nm),MCF-7; 0.25 μg/ml,0.879 ± 0.059
same,IR (%),MCF-7; 1 μg/ml,83.3%
same,OD(A570 nm),MCF-7; 1 μg/ml,0.151 ± 0.011
same,IR (%),MCF-7; 4 μg/ml,88.2%
same,OD(A570 nm),MCF-7; 4 μg/ml,0.107 ± 0.007
same,"IC50 (95% confidence level), interval",MCF-7; 95% confidence limits of IC50,0.483-0.737
same,IC50 (95% confidence level),MCF-7; [1],0.596
same,IR (%),U251; [2],16.8%
same,OD(A570 nm),U251; [2],0.729 ± 0.090
same,IR (%),"U251; U251 (first table), 0.25 μg/ml",21.5%
same,OD(A570 nm),"U251; U251 (first table), 0.25 μg/ml",0.688 ± 0.035
same,IR (%),"U251; U251 (first table), 1 μg/ml",58.4%
same,OD(A570 nm),"U251; U251 (first table), 1 μg/ml",0.365 ± 0.058
same,IR (%),"U251; U251 (first table), 4 μg/ml",80.2%
same,OD(A570 nm),"U251; U251 (first table), 4 μg/ml",0.174 ± 0.009
same,IC50 (95% confidence level),U251; U251 (first table),1.13
same,IR (%),U251; [3],16.8%
same,OD(A570 nm),U251; [3],0.729 ± 0.090
same,IR (%),U251; [4],21.5%
same,OD(A570 nm),U251; [4],0.688 ± 0.035
same,IR (%),"U251; U251 (second table), 1 μg/ml",58.4%
same,OD(A570 nm),"U251; U251 (second table), 1 μg/ml",0.365 ± 0.058
same,IR (%),"U251; U251 (second table), 4 μg/ml",80.2%
same,OD(A570 nm),"U251; U251 (second table), 4 μg/ml",0.174 ± 0.009
same,IC50 (95% confidence level),U251; U251 (second table),1.13
same,IR (%),"A459; A459, 0.0625 μg/ml",23.9%
same,OD(A570 nm),"A459; A459, 0.0625 μg/ml",0.485 ± 0.046
same,IR (%),"A459; A459, 0.25 μg/ml",18.8%
same,OD(A570 nm),"A459; A459, 0.25 μg/ml",0.517 ± 0.073
same,IR (%),"A459; A459, 1 μg/ml",46.4%
same,OD(A570 nm),"A459; A459, 1 μg/ml",0.341 ± 0.060
same,IR (%),"A459; A459, 4 μg/ml",71.0%
same,"IC50 (95% confidence level), interval",A459; A459,1.113-1.213
same,IC50 (95% confidence level),A459; A459,1.162
same,IR (%),A459; [5],23.9%
same,OD(A570 nm),A459; [5],0.485 ± 0.046
same,IR (%),"A459; A459 Experiment #2, 0.25 μg/ml",18.8%
same,OD(A570 nm),"A459; A459 Experiment #2, 0.25 μg/ml",0.517 ± 0.073
same,IR (%),"A459; A459 Experiment #2, 1 μg/ml",46.4%
same,OD(A570 nm),"A459; A459 Experiment #2, 1 μg/ml",0.341 ± 0.060
same,IR (%),"A459; A459 Experiment #2, 4 μg/ml",71.0%
same,"IC50 (95% confidence level), interval",A459; A459 Experiment #2,1.114-1.213
same,IC50 (95% confidence level),A459; A459 Experiment #2,1.162
same,IR (%),SKOV3; [6],1.6%
same,OD(A570 nm),SKOV3; [6],0.689 ± 0.065
same,IR (%),SKOV3; [7],8.3%
same,OD(A570 nm),SKOV3; [7],0.643 ± 0.141
same,IR (%),"SKOV3; SKOV3 (first table), 1 μg/ml",62.0%
same,OD(A570 nm),"SKOV3; SKOV3 (first table), 1 μg/ml",0.267 ± 0.044
same,IR (%),"SKOV3; SKOV3 (first table), 4 μg/ml",88.2%
same,OD(A570 nm),"SKOV3; SKOV3 (first table), 4 μg/ml",0.083 ± 0.002
same,IC50 (95% confidence level),SKOV3; SKOV3 (first table),0.89
same,IR (%),SKOV3; [8],1.6%
same,OD(A570 nm),SKOV3; [8],0.689 ± 0.065
same,IR (%),SKOV3; [9],8.3%
same,OD(A570 nm),SKOV3; [9],0.643 ± 0.141
same,IR (%),"SKOV3; SKOV3 (second table), 1 μg/ml",62.0%
same,OD(A570 nm),"SKOV3; SKOV3 (second table), 1 μg/ml",0.267 ± 0.044
same,IR (%),"SKOV3; SKOV3 (second table), 4 μg/ml",88.2%
same,OD(A570 nm),"SKOV3; SKOV3 (second table), 4 μg/ml",0.083 ± 0.002
same,IC50 (95% confidence level),SKOV3; SKOV3 (second table),0.89
same,IR (%),HCT116; 0.25 μg/ml,51.0%
same,OD(A570 nm),HCT116; 0.25 μg/ml,0.266 ± 0.016
same,IR (%),HCT116; 1 μg/ml,62.9%
same,OD(A570 nm),HCT116; 1 μg/ml,0.201 ± 0.060
same,IR (%),HCT116; 4 μg/ml,75.5%
same,OD(A570 nm),HCT116; 4 μg/ml,0.133 ± 0.016
same,"IC50 (95% confidence level), interval",HCT116; 95% confidence limits of IC50,0.211-0.257
same,IC50 (95% confidence level),HCT116; [1],0.234
same,IR (%),"SMMC-7721; SMMC-7721, 0.0625 μg/ml",−29.4%
same,OD(A570 nm),"SMMC-7721; SMMC-7721, 0.0625 μg/ml",0.570 ± 0.166
same,IR (%),"SMMC-7721; SMMC-7721, 0.25 μg/ml",46.2%
same,OD(A570 nm),"SMMC-7721; SMMC-7721, 0.25 μg/ml",0.237 ± 0.020
same,IR (%),"SMMC-7721; SMMC-7721, 1 μg/ml",71.0%
same,OD(A570 nm),"SMMC-7721; SMMC-7721, 1 μg/ml",0.128 ± 0.011
same,IR (%),"SMMC-7721; SMMC-7721, 4 μg/ml",61.6%
same,OD(A570 nm),"SMMC-7721; SMMC-7721, 4 μg/ml",0.169 ± 0.022
same,IR (%),SMMC-7721; [10],24.5%
same,OD(A570 nm),SMMC-7721; [10],0.348 ± 0.045
same,IR (%),SMMC-7721; [11],43.1%
same,OD(A570 nm),SMMC-7721; [11],0.262 ± 0.020
same,IR (%),SMMC-7721; [12],47.0%
same,OD(A570 nm),SMMC-7721; [12],0.244 ± 0.155
same,"IC50 (95% confidence level), interval","SMMC-7721; SMMC-7721 Experiment #2, 95% confidence limits of IC50",3.757-4.640
same,IC50 (95% confidence level),"SMMC-7721; SMMC-7721 Experiment #2, Bliss method, unit not printed (concentrations in μg/ml)",4.155
